From patent US12084430B2, “Tricyclic urea compounds as JAK2 V617F inhibitors” (Incyte Corporation, priority 2022, dated 2024)

Experiment: In vivo pharmacokinetics, cynomolgus monkey
Parameters: species or system Cynomolgus monkeys
Conditions: both sexes, plasma, oral 3.0 mg/kg, read-out: CYNO PO AUC
Experimental: Example H. In Vivo Pharmacokinetics
Test compounds were administered to male Sprague Dawley rats or male and female Cynomolgus monkeys intravenously or via oral gavage. For intravenous (IV) dosing, test compounds were dosed at 1 mg/kg using a formulation of 10% dimethylacetamide (DMAC), 10% propylene glycol (PG) in acidified saline via IV bolus for rat or 10 min IV infusion for monkey. For oral (PO) dosing, test compounds were dosed at 3.0 mg/kg using 5% DMAC in 0.5% methylcellulose in citrate buffer (pH˜2.5). Blood samples were collected at predose and various time points up to 24 hours postdose. All blood samples were collected using EDTA as the anticoagulant and centrifuged to obtain plasma samples. The plasma concentrations of test compounds were determined by LC-MS/MS methods. The measured plasma concentrations were used to calculate PK parameters by standard noncompartmental methods using Phoenix® WinNonlin software program (version 8.0, Pharsight Corporation) or similar software. In rats and monkeys, cassette dosing of test compounds were conducted to obtain preliminary PK parameters. In vivo pharmacokinetic experiments with male beagle dogs may be performed under the conditions described above.

Q: With `COC(=O)N[C@@H]1CC[C@@H](n2c(=O)n(C)c3cnc4[nH]c(-c5cn(C)nc5OC)c(-c5ccc(F)cc5)c4c32)C1` [Example 1, Methyl ((1R,3R)-3-(8-(4-fluorophenyl)-7-(3-methoxy-1-methyl-1H-pyrazol-4-yl)-3-methyl-2-oxo-3,6-dihydroimidazo[4,5-d]pyrrolo[2,3-b]pyridin-1(2H)-yl)cyclopentyl)carbamate] as the molecule, how does the AUC read?
A: > 1.5 µM·h

Q: Which AUC does the source give for `COC(=O)N[C@@H]1CC[C@@H](n2c(=O)n(C)c3cnc4[nH]c(-c5cn(C)nc5OC)c(-c5ccccc5)c4c32)C1` [Example 2, Methyl ((1R,3R)-3-(7-(3-methoxy-1-methyl-1H-pyrazol-4-yl)-3-methyl-2-oxo-8-phenyl-3,6-dihydroimidazo[4,5-d]pyrrolo[2,3-b]pyridin-1(2H)-yl)cyclopentyl)carbamate] here?
A: > 1.5 µM·h

Q: For `COC(=O)N[C@@H]1CC[C@@H](n2c(=O)n(C)c3cnc4[nH]c(-c5cn(C)nc5OC)c(-c5cccc(F)c5)c4c32)C1` [Example 3, Methyl ((1R,3R)-3-(8-(3-fluorophenyl)-7-(3-methoxy-1-methyl-1H-pyrazol-4-yl)-3-methyl-2-oxo-3,6-dihydroimidazo[4,5-d]pyrrolo[2,3-b]pyridin-1(2H)-yl)cyclopentyl)carbamate], which AUC is on record?
A: > 1.5 µM·h

Q: With `COC(=O)N[C@@H]1CC[C@@H](n2c(=O)n(C)c3cnc4[nH]c(-c5cn(C)nc5OC)c(-c5ccc(OC)c(F)c5)c4c32)C1` [Example 4, Methyl ((1R,3R)-3-(8-(3-fluoro-4-methoxyphenyl)-7-(3-methoxy-1-methyl-1H-pyrazol-4-yl)-3-methyl-2-oxo-3,6-dihydroimidazo[4,5-d]pyrrolo[2,3-b]pyridin-1(2H)-yl)cyclopentyl)carbamate] as the molecule, how does the AUC read?
A: > 1.5 µM·h

Q: For `[2H]C([2H])([2H])n1ncc2cc(-c3c(-c4cn(C)nc4OC)[nH]c4ncc5c(c34)n([C@@H]3CC[C@@H](NC(=O)OC)C3)c(=O)n5C)ccc21` [Example 5, Methyl ((1R,3R)-3-(7-(3-methoxy-1-methyl-1H-pyrazol-4-yl)-3-methyl-8-(1-(methyl-d3)-1H-indazol-5-yl)-2-oxo-3,6-dihydroimidazo[4,5-d]pyrrolo[2,3-b]pyridin-1(2H)-yl)cyclopentyl)carbamate], which AUC is on record?
A: > 1.5 µM·h

Q: For `[2H]C([2H])([2H])n1cc(-c2[nH]c3ncc4c(c3c2-c2ccc3c(cnn3C([2H])([2H])[2H])c2)n([C@@H]2CC[C@@H](NC(=O)OC)C2)c(=O)n4C([2H])([2H])[2H])c(F)n1` [Example 6, Methyl ((1R,3R)-3-(7-(3-fluoro-1-(methyl-d3)-1H-pyrazol-4-yl)-3-(methyl-d3)-8-(1-(methyl-d3)-1H-indazol-5-yl)-2-oxo-3,6-dihydroimidazo[4,5-d]pyrrolo[2,3-b]pyridin-1(2H)-yl)cyclopentyl)carbamate], which AUC is on record?
A: > 1.5 µM·h

Q: Which AUC does the source give for `[2H]C([2H])([2H])n1cc(-c2[nH]c3ncc4c(c3c2-c2ccc(F)cc2)n([C@@H]2CC[C@@H](NC(=O)OC)C2)c(=O)n4C([2H])([2H])[2H])c(F)n1` [Example 7, Methyl ((1R,3R)-3-(7-(3-fluoro-1-(methyl-d3)-1H-pyrazol-4-yl)-8-(4-fluorophenyl)-3-(methyl-d3)-2-oxo-3,6-dihydroimidazo[4,5-d]pyrrolo[2,3-b]pyridin-1(2H)-yl)cyclopentyl)carbamate] here?
A: > 1.5 µM·h

Q: Which AUC does the source give for `[2H]C([2H])([2H])n1cc(-c2[nH]c3ncc4c(c3c2-c2ccc3c(c2)COC3(C)C)n([C@@H]2CC[C@@H](NC(=O)OC)C2)c(=O)n4C([2H])([2H])[2H])c(F)n1` [Example 8, Methyl ((1R,3R)-3-(8-(1,1-dimethyl-1,3-dihydroisobenzofuran-5-yl)-7-(3-fluoro-1-(methyl-d3)-1H-pyrazol-4-yl)-3-(methyl-d3)-2-oxo-3,6-dihydroimidazo[4,5-d]pyrrolo[2,3-b]pyridin-1(2H)-yl)cyclopentyl)carbamate] here?
A: ≤ 0.5 µM·h

Q: Which AUC does the source give for `[2H]C([2H])([2H])Oc1ccc(-c2c(-c3cn(C([2H])([2H])[2H])nc3F)[nH]c3ncc4c(c23)n([C@@H]2CC[C@@H](NC(=O)OC)C2)c(=O)n4C([2H])([2H])[2H])cc1` [Example 9, Methyl ((1R,3R)-3-(7-(3-fluoro-1-(methyl-d3)-1H-pyrazol-4-yl)-8-(4-(methoxy-d3)phenyl)-3-(methyl-d3)-2-oxo-3,6-dihydroimidazo[4,5-d]pyrrolo[2,3-b]pyridin-1(2H)-yl)cyclopentyl)carbamate] here?
A: > 1.5 µM·h

Q: For `[2H]C([2H])([2H])n1cc(-c2[nH]c3ncc4c(c3c2-c2ccc(C(C)(C)O)cc2)n([C@@H]2CC[C@@H](NC(=O)OC)C2)c(=O)n4C([2H])([2H])[2H])c(F)n1` [Example 10, Methyl ((1R,3R)-3-(7-(3-fluoro-1-(methyl-d3)-1H-pyrazol-4-yl)-8-(4-(2-hydroxypropan-2-yl)phenyl)-3-(methyl-d3)-2-oxo-3,6-dihydroimidazo[4,5-d]pyrrolo[2,3-b]pyridin-1(2H)-yl)cyclopentyl)carbamate], which AUC is on record?
A: 0.5 to 1.5 µM·h
